Source: patent publication US11147746B2, “Hydrophobic dental surfaces” (priority 2016, dated 2021)
No end group written: not given here.

Assays:
[1] = Saliva (enzyme) challenge of coated dentin, then WCA and acidic dye penetration; set-up: species or system bovine; conditions: saliva at 37° C. for three consecutive days
Method: Peptide-coated dentin samples were challenged with saliva, which includes enzymes. Bovine dentin slabs, prepared as discussed above with reference to EXAMPLE 2, were incubated in freshly collected and filtered saliva (thus exposed to biodegrading enzymes) at 37° C. for three consecutive days. The WCA was subsequently measured, and the samples were further immersed in acidic blue dye for 4 h. GL13K-coated dentin retained its hydrophobic character after the challenge, with average WCA=105°. FIG. 7A is a photograph showing a transverse cross-section of a tooth slab including enamel and dentin and treated with a buffer solution, exposed to saliva for three days, and subjected to an acidic blue dye.

[2] = Water contact angle (sessile drop) on peptide-coated dentin; assay type: physicochemical
Excerpt: The water contact angle (WCA) may be measured using the sessile drop method with deionized water as probe liquid. The sessile drop is the most common method for optical measurement of the contact angle using drop shape analysis. Measurement of the contact angle of a sessile drop that lies on the surface of a solid may be made with a contact angle goniometer, which allows measuring the contact angle visually by capturing the profile of a pure liquid on a solid substrate. The angle formed between the liquid-solid interface and the liquid-vapor interface is determined to be the water contact angle. A droplet is deposited by a syringe which is positioned above the sample surface, and a high-resolution camera may be used to capture the image from the profile or side view. The image may be analyzed using image analysis software. The measurement may be referred to as a static contact angle measurement. The change in WCA, or ΔWCA, is the difference between the average water contact angles after predetermined intervals of time, for example, 1 s and 21 s of drop contact with the tested surface, or the difference between the initial and the final water contact angles.
Water contact angles described according to the disclosure are with reference to the sessile drop technique, using a drop volume or 2-5 μL, for example, 3 μL. Similar or different values of WCA and ΔWCA for the same tested surfaces may be obtained using other methods to determine wettability of surfaces, such as the Wilhelmy method, or when using different drop volumes. In some examples, one or more of these or other techniques may be used to determine the WCA or ΔWCA.
The wettability of coated etched dentin with these peptides was evaluated in different conditions, for example, single or double GL13K coatings, rinsing with water or alcohol after coating, after deproteinization, with blow drying, alcohol drying, combinations of the two, or progressive alcohol drying after dentin etching, and using the same buffer solutions with or without peptides. Dynamic water contact angles (WCA) of water drops placed on the treated dentin surfaces were measured.
A drop of 3 μL of deionized water was dispensed using a contact angle meter (DCM-E1, Kyowa, Japan) on top of the dentin surfaces with and without treatments. Images of the drop were automatically taken with the camera of the contact angle meter every second for 21 s; i.e., until the shape of the drop on the surface was stable for all surfaces analyzed. The shape of the profile of the drop on the surface was then automatically identified by the equipment's software (Famas, Kyowa, Japan) and the contact angle between the liquid-solid interface and the liquid-vapor interface was determined. The reported WCA are average values at the end of the test; i.e., after 21 s the drop was in contact with the tested surface for at least 3 different drops in three different surfaces for each dentin treatment. ΔWCA is the difference between the average water contact angles after 1 s and 21 s of drop contact with the tested surface; i.e., the difference between the initial and the final water contact angles.
A de-proteinization step was used to remove demineralized/exposed collagen. […] A super-hydrophobic GL13K-coated dentin surface with water contact angles up to 100 was produced.

[3] = dentin prepared with the deproteinized method, then coated (samples S12, S14, S16)
[4] = progressive dehydration protocol (increasing ethanol concentrations)

Sequence | average WCA after saliva challenge [1] | WCA [2, 3] | water contact angles ([2]; etching, wet de-proteinization with 5% NaOCl, coating without alcohol dehydration (Example 8)) | WCA [2, 4] | ΔWCA [2, 4] | WCA ([2]; single coating on etched dentin, alcohol rinse and blow drying) | WCA ([2]; single coating on etched dentin, water rinse and blow drying) | WCA ([2]; two coating treatments, rinsing with alcohol) | variation of water contact angle over time ([2]; with respect to the etched dentin)
GKIIKLKASLKLL [GL13K] | 105 ° | 85 ° | up to 100 | 120 ° | 4 ° | 55 ° | 70 ° | 100 ° | significantly reduced
VRLIVAVRIWRR [Sample 1018] | – | 84 ° | – | – | – | – | – | – | –
